Results: article PMC7073229, “Novel Quinoline Compounds Active in Cancer Cells through Coupled DNA Methyltransferase Inhibition and Degradation” (Cancers, 2020)

Experiments:
CHK2 (h) = CHK2 (h) (Homo sapiens, UniProt O96017); assay: Kinase inhibitory assay (panel); assay type: biochemical; details: read-out: % inhibition at 10 µM
Experimental: (§1) Experimental procedure of kinase inhibitory assays
(§2) The test compound, reference compound or water (control) were mixed with the enzyme (for the exact amount see table below) in the appropriate buffer. Thereafter, the reaction was initiated by adding the required amount of the appropriate substrate and of ATP, and the mixture is incubated at room temperature (variable reaction time, see table below). For control basal measurements, the enzyme was omitted from the reaction mixture. Following incubation, the reaction was stopped by adding 13 mM
(§3) EDTA. After 5 min, the proper antibody labelled with europium chelate was added. After 60 more min, the fluorescence transfer was measured at λex=337 nm, λem=620 nm and λem=665 nm using a microplate reader (Envision, Perkin Elmer). The enzyme activity was determined by d ividing the signal measured at 665 nm by that measured at 620 nm (ratio). The results are expressed as a percent inhibition of the control enzyme activity. The standard inhibitory reference compound is staurosporine when not differently indicated (see tabl e below), which has been tested in each experiment at several concentrations to obtain an inhibition curve from which its IC 50 value is calculated.
(§4) • Assay volume and format: 10 µL in 384-well plate
(§5) • Compound addition: [100x] solution in solvent then [5x] solution in water • Maximum tolerable DMSO concentration: 1%

CaMK2alpha (h) = CaMK2alpha (h) (Homo sapiens, UniProt Q9UQM7); assay: Kinase inhibitory assay (panel); assay type: biochemical; details: read-out: % inhibition at 10 µM
Experimental: as §1, §2, §3, §4, §5

GSK3beta (h) = GSK3beta (h) (Homo sapiens, UniProt P49841); assay: Kinase inhibitory assay (panel); assay type: biochemical; details: read-out: % inhibition at 10 µM
GSK3beta (h), sequence (P49841 whole entry): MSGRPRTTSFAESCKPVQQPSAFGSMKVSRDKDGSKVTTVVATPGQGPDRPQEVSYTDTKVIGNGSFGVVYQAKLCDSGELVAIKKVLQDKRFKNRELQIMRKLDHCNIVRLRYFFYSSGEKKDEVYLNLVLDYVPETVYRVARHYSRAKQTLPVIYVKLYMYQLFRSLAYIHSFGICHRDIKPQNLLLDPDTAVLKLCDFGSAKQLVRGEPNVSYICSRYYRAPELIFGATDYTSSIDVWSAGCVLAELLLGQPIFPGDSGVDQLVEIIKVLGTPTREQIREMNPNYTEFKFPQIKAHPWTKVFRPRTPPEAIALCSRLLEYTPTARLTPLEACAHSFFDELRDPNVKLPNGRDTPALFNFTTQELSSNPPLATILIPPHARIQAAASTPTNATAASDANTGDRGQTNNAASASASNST
Experimental: as §1, §2, §3, §4, §5

IKKalpha (h) = IKKalpha (h) (Homo sapiens, UniProt O15111); assay: Kinase inhibitory assay (panel); assay type: biochemical; details: read-out: % inhibition at 10 µM
IKKalpha (h), sequence (O15111 whole entry): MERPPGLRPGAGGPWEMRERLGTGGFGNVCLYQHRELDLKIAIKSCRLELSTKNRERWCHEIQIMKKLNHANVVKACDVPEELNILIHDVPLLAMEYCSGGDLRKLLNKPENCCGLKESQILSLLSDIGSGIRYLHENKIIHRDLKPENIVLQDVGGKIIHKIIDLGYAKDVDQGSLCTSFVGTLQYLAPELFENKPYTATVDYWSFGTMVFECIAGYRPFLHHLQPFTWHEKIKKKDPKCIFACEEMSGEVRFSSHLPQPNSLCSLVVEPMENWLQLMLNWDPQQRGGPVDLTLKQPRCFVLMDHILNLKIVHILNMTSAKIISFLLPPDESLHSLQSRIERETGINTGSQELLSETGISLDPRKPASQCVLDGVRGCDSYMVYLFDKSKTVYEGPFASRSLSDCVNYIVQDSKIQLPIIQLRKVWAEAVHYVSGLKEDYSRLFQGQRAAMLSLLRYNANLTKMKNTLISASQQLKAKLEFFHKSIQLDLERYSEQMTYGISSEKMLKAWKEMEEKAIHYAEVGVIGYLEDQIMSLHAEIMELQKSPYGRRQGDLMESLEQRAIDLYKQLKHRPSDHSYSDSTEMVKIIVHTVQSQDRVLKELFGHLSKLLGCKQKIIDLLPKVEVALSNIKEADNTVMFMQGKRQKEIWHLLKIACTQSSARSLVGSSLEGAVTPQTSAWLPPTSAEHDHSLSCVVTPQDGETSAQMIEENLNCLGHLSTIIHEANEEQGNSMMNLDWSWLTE
Experimental: as §1, §2, §3, §4, §5

PKCbeta 2 (h) = PKCbeta 2 (h) (Homo sapiens, UniProt P05771); assay: Kinase inhibitory assay (panel); assay type: biochemical; details: read-out: % inhibition at 10 µM
PKCbeta 2 (h), sequence (P05771 1-673 isoform P05771-2): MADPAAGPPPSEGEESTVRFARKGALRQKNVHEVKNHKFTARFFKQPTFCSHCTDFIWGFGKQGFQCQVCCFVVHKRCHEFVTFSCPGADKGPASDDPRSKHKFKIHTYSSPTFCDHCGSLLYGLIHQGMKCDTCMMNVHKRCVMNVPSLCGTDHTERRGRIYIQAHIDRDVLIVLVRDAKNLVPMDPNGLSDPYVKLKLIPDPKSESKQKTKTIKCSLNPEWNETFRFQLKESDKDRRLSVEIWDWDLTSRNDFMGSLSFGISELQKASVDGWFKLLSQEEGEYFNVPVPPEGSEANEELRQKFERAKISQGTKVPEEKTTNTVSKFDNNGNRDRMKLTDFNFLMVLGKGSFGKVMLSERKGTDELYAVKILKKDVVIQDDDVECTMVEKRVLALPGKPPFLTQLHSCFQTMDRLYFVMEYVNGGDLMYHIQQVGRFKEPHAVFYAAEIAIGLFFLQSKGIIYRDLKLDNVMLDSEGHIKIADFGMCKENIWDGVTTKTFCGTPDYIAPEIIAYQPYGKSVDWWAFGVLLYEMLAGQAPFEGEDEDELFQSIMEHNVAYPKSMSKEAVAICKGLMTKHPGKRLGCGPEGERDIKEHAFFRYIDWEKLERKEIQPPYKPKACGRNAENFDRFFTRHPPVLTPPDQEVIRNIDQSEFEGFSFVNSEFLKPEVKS
Experimental: as §1, §2, §3, §4, §5

RAF-1 kinase (h) = RAF-1 kinase (h) (Homo sapiens, UniProt P04049); assay: Kinase inhibitory assay (panel); assay type: biochemical; details: read-out: % inhibition at 10 µM
RAF-1 kinase (h), sequence (P04049 whole entry): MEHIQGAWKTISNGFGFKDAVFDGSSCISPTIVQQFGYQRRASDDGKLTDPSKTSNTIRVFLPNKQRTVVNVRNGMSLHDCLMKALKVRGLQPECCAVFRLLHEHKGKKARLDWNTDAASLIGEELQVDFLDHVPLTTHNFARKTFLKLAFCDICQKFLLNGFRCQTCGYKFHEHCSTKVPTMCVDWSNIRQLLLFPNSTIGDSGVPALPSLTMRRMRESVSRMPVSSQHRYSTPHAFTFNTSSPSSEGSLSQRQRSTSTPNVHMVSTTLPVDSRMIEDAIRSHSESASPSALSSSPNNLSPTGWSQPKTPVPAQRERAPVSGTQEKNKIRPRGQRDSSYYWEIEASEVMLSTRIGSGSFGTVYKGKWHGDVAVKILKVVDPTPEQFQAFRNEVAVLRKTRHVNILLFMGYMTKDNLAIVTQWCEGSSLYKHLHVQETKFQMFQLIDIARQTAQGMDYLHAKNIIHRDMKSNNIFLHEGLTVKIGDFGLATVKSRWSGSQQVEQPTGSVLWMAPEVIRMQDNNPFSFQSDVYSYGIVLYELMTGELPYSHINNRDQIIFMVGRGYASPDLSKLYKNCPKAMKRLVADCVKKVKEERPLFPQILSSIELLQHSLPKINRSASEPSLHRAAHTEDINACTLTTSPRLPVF
Experimental: as §1, §2, §3, §4, §5

TRKA (h) = TRKA (h) (Homo sapiens, UniProt P04629); assay: Kinase inhibitory assay (panel); assay type: biochemical; details: read-out: % inhibition at 10 µM
Experimental: as §1, §2, §3, §4, §5

c-Met kinase (h) = c-Met kinase (h) (Homo sapiens, UniProt P08581); assay: Kinase inhibitory assay (panel); assay type: biochemical; details: read-out: % inhibition at 10 µM
Experimental: as §1, §2, §3, §4, §5

[1] = test system: peripheral blood B lymphocyte AHH1 cells; assay: Differential toxicity, antiproliferative assay; assay type: cell-based; details: Homo sapiens, AHH-1; 48 h treatment; read-out: IC50 against AHH1 cells
Experimental: U937 histiocytic lymphoma, HL60 acute promyelocytic leukemia, H1299 lung adenocarcinoma, MCF7 breast carcinoma, HT1080 fibrosarcoma, M14 melanoma, HeLa epithelial cervix carcinoma and peripheral blood B lymphocyte AHH1 human cell lines were obtained from the Deutsche Sammlung für Mikroorganismen and Zellkulturen (DSZM, Braunschweig, Germany) and were maintained in RPMI 1640 medium contained 10% fetal bovine serum (FBS), 2 mM L-glutamine, and antibiotics in a humidified atmosphere with 5% CO2 at 37 °C. […]
Then, increasing concentrations of different compounds (ranging from 0.01 to 100 μM) were added, and cell proliferation was evaluated by a MTT assay after 48 h. […] The effect of compounds was evaluated using the CellTiter-Glo luminescent cell viability assay (Promega, Madison, WI, USA) according to the manufacturer’s instructions. […] After treatments, MTT solution was added for 3 h at 0.5 mg/mL, the obtained crystals were dissolved in DMSO (Sigma-Aldrich, Milan, Italy), and the absorbance was read at a wavelength of 570 nm with reader TECAN M-200. […]
IC50 values of compounds against cellular viability were determined by using nonlinear regression fitting curves with GraphPad Prism 8. […]

DNMT1 protein = target: T1, DNMT1 protein (Homo sapiens, UniProt P26358); assay: Western blot of DNMT1 protein level in HCT116 cells; assay type: cell-based; details: HCT116, 1 µM, 24 h
T1 construct: endogenous in cells; host or cells: HCT116
T1 sequence (P26358 whole entry): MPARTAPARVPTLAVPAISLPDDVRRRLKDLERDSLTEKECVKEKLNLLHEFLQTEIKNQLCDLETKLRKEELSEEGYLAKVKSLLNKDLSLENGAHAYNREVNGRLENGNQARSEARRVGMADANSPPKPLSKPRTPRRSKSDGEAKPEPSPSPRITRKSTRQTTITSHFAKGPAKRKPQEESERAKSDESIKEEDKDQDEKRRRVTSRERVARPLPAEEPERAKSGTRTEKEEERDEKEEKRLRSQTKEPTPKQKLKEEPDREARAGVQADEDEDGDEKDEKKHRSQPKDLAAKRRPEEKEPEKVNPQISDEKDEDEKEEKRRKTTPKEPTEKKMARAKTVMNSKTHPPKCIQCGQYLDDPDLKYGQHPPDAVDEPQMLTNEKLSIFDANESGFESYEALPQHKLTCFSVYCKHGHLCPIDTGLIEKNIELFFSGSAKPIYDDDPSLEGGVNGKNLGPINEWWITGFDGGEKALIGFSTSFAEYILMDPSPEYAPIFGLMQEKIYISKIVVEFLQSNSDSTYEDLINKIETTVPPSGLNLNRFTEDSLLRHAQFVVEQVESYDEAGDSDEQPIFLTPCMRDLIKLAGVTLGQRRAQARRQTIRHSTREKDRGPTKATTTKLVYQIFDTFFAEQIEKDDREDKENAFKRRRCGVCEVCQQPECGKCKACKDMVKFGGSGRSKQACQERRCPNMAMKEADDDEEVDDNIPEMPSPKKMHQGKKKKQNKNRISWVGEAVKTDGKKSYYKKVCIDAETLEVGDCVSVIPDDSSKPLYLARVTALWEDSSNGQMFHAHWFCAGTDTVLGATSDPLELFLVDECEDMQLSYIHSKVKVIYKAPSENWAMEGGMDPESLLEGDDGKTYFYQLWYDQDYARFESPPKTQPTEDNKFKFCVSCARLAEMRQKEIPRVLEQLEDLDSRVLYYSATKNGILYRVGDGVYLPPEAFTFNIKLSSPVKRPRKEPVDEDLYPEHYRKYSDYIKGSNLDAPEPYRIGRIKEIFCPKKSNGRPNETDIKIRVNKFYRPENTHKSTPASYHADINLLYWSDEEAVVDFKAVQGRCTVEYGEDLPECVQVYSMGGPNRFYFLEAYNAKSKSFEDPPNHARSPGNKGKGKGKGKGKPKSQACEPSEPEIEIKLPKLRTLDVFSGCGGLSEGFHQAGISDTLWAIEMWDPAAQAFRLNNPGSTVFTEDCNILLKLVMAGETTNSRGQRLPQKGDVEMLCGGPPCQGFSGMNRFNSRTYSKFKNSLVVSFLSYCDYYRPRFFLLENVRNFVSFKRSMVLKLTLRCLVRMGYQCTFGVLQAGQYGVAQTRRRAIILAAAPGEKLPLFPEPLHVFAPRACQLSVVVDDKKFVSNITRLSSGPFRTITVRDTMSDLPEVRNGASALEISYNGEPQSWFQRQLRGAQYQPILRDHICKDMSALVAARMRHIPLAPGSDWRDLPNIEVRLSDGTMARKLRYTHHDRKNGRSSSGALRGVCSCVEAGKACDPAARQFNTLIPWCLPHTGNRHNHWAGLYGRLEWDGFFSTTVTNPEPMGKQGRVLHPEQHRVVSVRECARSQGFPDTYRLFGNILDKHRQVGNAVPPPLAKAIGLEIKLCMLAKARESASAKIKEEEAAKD
Text: (§6) Cells were lysed in Laemmli buffer; subsequently the proteins were resolved by sodium dodecyl sulphate-polyacrylamide gel electrophoresis and transferred to a 0.45 µm nitrocellulose membrane (Bio-Rad Laboratories, Hercules, CA, USA). The following primary antibodies were used for immunoblotting: α-DNMT1 (Novus Biologicals, Littleton, CO, USA). α-DNMT3a (SantaCruz Bio-technologies, CA, USA) and α-GAPDH (Millipore Corp., Bedford, MA USA), used as a loading control. The immune complexes were detected with horseradish peroxidase-conjugated species-specific secondary antiserum (Bio-Rad Laboratories, Hercules, CA, USA) then by enhanced chemiluminescence reaction (Bio-Rad Laboratories, Hercules, CA, USA). Densitometric analysis of protein expression was performed by using the Fiji-Image J image processing package.

DNMT3A protein = target: T2, DNMT3A protein (Homo sapiens, UniProt Q9Y6K1); assay: Western blot of DNMT3A protein level in HCT116 cells; assay type: cell-based; details: 24 h
T2 construct: endogenous in cells; host or cells: HCT116
T2 sequence (Q9Y6K1 whole entry, looked up): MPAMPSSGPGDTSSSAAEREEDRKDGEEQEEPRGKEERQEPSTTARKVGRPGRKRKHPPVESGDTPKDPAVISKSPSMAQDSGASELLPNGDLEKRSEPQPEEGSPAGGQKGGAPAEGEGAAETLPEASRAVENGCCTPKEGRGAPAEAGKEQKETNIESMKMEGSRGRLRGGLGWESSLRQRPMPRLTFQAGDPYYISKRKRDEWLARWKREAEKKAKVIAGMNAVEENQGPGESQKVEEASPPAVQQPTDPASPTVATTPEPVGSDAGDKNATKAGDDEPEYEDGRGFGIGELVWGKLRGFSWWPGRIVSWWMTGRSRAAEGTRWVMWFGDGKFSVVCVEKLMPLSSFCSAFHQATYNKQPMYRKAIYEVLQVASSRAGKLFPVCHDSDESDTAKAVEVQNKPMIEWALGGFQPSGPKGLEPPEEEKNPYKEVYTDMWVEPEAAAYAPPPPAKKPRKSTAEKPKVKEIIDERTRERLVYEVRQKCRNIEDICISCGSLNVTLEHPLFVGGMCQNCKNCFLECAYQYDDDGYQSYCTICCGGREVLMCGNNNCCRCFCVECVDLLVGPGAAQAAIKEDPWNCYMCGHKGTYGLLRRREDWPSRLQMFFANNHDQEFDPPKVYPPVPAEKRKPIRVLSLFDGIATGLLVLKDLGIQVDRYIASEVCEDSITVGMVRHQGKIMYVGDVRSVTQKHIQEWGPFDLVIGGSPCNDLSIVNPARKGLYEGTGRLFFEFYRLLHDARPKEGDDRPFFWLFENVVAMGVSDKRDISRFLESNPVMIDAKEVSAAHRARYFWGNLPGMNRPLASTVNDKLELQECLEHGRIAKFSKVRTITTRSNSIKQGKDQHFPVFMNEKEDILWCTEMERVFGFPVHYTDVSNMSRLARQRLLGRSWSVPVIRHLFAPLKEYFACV
Text: as §6

[2] = test system: methylated UCHL1 promoter (pUCHL1) in HCT116 cells; assay: UCHL1 promoter demethylation assay (EGFP induction, FACS); assay type: cell-based, human; details: five days
Experimental: The assay was performed as described in [29]. Briefly, human colon cancer HCT116 (ATCC, VA, USA) cells were grown in Dulbecco’s Modified Eagle Medium (DMEM; Euroclone, Milan, Italy) supplemented with 10% fetal bovine serum (FBS; Euroclone, Milan, Italy), 2 mM L-glutamine (Euroclone), and antibiotics (100 U/mL penicillin, 100 µg/mL streptomycin) (Euroclone). The pUMLIEP vector (composed by MetLuc-IRES-EGFP construct upon the control of the ubiquitin carboxyl-terminal hydrolase L1 (UCHL1)) was linearized and methylated by with ClaI and SssI-methylase enzymes (New England Biolabs, Milan, Italy). After, methylated pUMLIEP was transfected into HCT116 cells following the protocol described in [30]. […] On day 5, cells were observed under by a fluorescent microscope (Cytation 5 Cell Imaging Multi-Mode Reader (BioTeK Milan, Italy) and BD Accuri flow cytometers. Nuclei were counterstained with DAPI (10 µg/mL, Invitrogen, Tournai, Belgium).

O=C(Nc1ccc(Nc2ccnc3ccccc23)cc1)c1cccc(Nc2ccnc3ccccc23)c1 [Compound 2a]
inhibition at 10 µM (CHK2 (h)): -195%
inhibition at 10 µM (CaMK2alpha (h)): -99%
inhibition at 10 µM (GSK3beta (h)): -72%
inhibition at 10 µM (IKKalpha (h)): 70%
inhibition at 10 µM (PKCbeta 2 (h)): 79%
inhibition at 10 µM (RAF-1 kinase (h)): 79%
inhibition at 10 µM (TRKA (h)): 98%
inhibition at 10 µM (c-Met kinase (h)): -54%

O=C(Nc1cccc(Nc2ccnc3ccccc23)c1)c1cccc(Nc2ccnc3ccccc23)c1 [Compound 2b]
IC50 [1]: 3.3 µM
DNMT1 protein level (western blot) (DNMT1 protein): decrease
DNMT3A protein level (western blot) (DNMT3A protein; HCT116, 1 µM): decrease
inhibition at 10 µM (IKKalpha (h)): 70%
inhibition at 10 µM (PKCbeta 2 (h)): 79%
inhibition at 10 µM (RAF-1 kinase (h)): 79%
inhibition at 10 µM (TRKA (h)): 98%

O=C(Nc1cccc(Nc2ccnc3ccccc23)c1)c1ccc(Nc2ccnc3ccccc23)cc1 [Compound 2c]
pUCHL1 demethylation, EGFP-positive cells (FACS R1) ([2]; HCT116, 0.1 µM): 42.3%

O=C(Nc1cccc(NC(=O)c2ccc(Nc3ccnc4ccccc34)cc2)c1)OCc1ccccc1 [Compound 4c]
IC50 [1]: 9.6 µM
pUCHL1 demethylation, EGFP-positive cells (FACS R1) ([2]; HCT116, 0.5 µM): 58.7%
DNMT1 protein level (western blot) (DNMT1 protein): decrease
DNMT1 protein level (western blot) with bortezomib (DNMT1 protein; co-treated with bortezomib 10 nM): rescued
DNMT3A protein level (western blot) (DNMT3A protein; HCT116, 0.1 µM): decrease
DNMT3A protein level (western blot) (DNMT3A protein; HCT116, 1 µM): decrease
DNMT3A protein level (western blot) with bortezomib (DNMT3A protein; HCT116, 1 µM, co-treated with bortezomib 10 nM): rescued
